Source: US5100910A, “Aryl substituted tetrazole derivatives, and application thereof in therapeutics” (Delalande S.A., priority 1988, dated 1992)
pIC50: −log10 of the molar value.

Columns and labels:
MAO-B = target: T1, MAO-B (Rattus norvegicus, UniProt P19643); experiment: In vitro inhibition of monoamine oxidase B (substrate phenylethylamine, PEA; mitochondrial suspension of rat brain); assay type: biochemical; conditions: for pIC50: PEA substrate, 20 min preincubation, reaction 10 min
T1 construct: using, as enzyme source, a mitochrondrial suspension of the brain of a rat; from tissue; host or cells: rat brain, mitochondrial suspension
T1 sequence (P19643 1-520): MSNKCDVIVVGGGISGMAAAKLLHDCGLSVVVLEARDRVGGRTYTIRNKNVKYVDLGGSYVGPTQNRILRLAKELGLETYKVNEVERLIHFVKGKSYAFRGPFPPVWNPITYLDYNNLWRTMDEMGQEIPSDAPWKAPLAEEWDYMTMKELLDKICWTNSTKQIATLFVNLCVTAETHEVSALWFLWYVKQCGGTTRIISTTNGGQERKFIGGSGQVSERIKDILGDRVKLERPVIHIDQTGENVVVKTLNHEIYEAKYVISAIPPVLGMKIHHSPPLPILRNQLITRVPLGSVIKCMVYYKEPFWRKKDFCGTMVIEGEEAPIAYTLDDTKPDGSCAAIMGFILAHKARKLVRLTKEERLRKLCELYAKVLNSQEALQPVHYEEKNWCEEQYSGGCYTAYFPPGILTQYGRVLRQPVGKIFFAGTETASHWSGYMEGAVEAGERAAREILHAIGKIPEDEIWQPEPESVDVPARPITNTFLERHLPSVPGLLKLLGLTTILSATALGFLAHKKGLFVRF
Experimental: The quantitative determination of the MAO, activity was made up by using, as enzyme source, a mitochrondrial suspension of the brain of a rat. The standard determination consists in preincubating the enzyme for 20 minutes in the absence then in the presence of the inhibitors. […] The operating method used is that of the protocol of P. C. Baker, Dev. Biol. 14, 267 (1966). The results expressed in terms of CI50 (50% inhibiting concentration) obtained with a certain number of derivatives (I) are shown in tables VII and VIII hereafter.

MAO-A = target: T2, MAO-A (Rattus norvegicus, UniProt P21396); experiment: In vitro inhibition of monoamine oxidase A (substrate serotonine, 5-HT; mitochondrial suspension of rat brain); assay type: biochemical; conditions: 5-HT substrate; for pIC50: Table VII, 20 min preincubation, reaction 40 min; for inhibition at 1 µM: read-out: % of inhibition of MAO-A at a concentration of 10^-6 M, Table VIII, at a concentration of 10^-6 M
T2 construct: using, as enzyme source, a mitochrondrial suspension of the brain of a rat; from tissue; host or cells: rat brain, mitochondrial suspension
T2 sequence (P21396 1-526): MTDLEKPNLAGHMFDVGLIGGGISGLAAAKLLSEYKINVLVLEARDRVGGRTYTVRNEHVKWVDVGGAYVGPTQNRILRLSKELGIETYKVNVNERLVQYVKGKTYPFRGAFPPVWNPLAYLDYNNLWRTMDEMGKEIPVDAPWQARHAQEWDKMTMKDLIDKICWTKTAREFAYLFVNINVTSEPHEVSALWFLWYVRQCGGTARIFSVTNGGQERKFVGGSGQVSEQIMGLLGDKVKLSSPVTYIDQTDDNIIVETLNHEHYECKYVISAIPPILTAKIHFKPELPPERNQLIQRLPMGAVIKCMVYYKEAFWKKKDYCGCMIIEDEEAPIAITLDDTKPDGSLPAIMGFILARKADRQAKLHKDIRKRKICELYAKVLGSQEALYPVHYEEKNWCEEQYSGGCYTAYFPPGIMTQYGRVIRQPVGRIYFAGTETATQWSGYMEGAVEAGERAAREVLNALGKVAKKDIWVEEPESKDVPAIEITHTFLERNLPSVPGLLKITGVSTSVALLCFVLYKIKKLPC
Experimental: The quantitative determination of the MAO, activity was made up by using, as enzyme source, a mitochrondrial suspension of the brain of a rat. The standard determination consists in preincubating the enzyme for 20 minutes in the absence then in the presence of the inhibitors. The activities are determined by using respectively serotonine (5-HT) and phenylethylamine (PEA) as substrates of the MAO-A and of MAO-B, the reaction times being 40 minutes with 5-HT and 10 minutes with PEA. The operating method used is that of the protocol of P. C. Baker, Dev. Biol. 14, 267 (1966).
The results expressed in terms of CI50 (50% inhibiting concentration) obtained with a certain number of derivatives (I) are shown in tables VII and VIII hereafter.

mice = conditions: mouse, in vivo, 1500 mg/kg

| SMILES | pIC50 (MAO-B; Table VII) | inhibition at 1 µM (MAO-A) [%] | pIC50 (MAO-B; Table VIII) | further results |
| --- | --- | --- | --- | --- |
| N#CCCCn1nnc(-c2ccccc2)n1 [5-phenyl 2-tetrazole butyronitrile, reference compound] |  |  |  | pharmacological activity: selective inhibition of MAO-B (MAO-B): selective inhibitiopn of the monoamine oxidase of type B (MAO-B) |
| N#CCCCCn1nnc(-c2ccccc2)n1 [5-phenyl 2-tetrazole valeronitrile, reference compound] |  |  |  | pharmacological activity: selective inhibition of MAO-B (MAO-B): selective inhibitiopn of the monoamine oxidase of type B (MAO-B) |
| N#CCCn1nnc(-c2ccc(OCc3cccc(Cl)c3)cc2)n1 [Code No. 1, 5-[4-(3-chlorobenzyloxy)phenyl] 2-tetrazole propanenitrile] | 8.66 |  |  | pIC50 (MAO-A): 3.82; toxicity after oral administration (mice): no toxicity was observed |
| N#CCCn1nnc(-c2ccc(OCc3ccccc3)cc2)n1 [Code No. 7] | 8.64 |  |  | pIC50 (MAO-A): 4.07; toxicity after oral administration (mice): no toxicity was observed |
| N#CCCn1nnc(-c2ccc(-c3ccccc3)cc2)n1 [compound 13] |  |  |  | pIC50 (MAO-A): 5.11 |
| N#CCCCn1nnc(-c2ccc(-c3ccccc3)cc2)n1 [compound 14] | 5.92 |  |  | pIC50 (MAO-A): 5.02 |
| N#CCCCCCCn1nnc(-c2ccc(-c3ccccc3)cc2)n1 [compound 16] | 5.27 |  |  | pIC50 (MAO-A): 4.34 |
| OCCn1nnc(-c2ccc(OCc3ccccc3)cc2)n1 [compound 17] |  |  |  | toxicity after oral administration (mice): no toxicity was observed |
| OCCn1nnc(-c2ccc(OCc3ccccc3Cl)cc2)n1 [compound 18] | 8.26 |  |  | pIC50 (MAO-A): 4.06 |
| OCCn1nnc(-c2ccc(OCc3cccc(Cl)c3)cc2)n1 [compound 19] |  |  |  | toxicity after oral administration (mice): no toxicity was observed |
| OCCn1nnc(-c2ccc(OCc3ccc(Cl)cc3)cc2)n1 [compound 20] | 8.10 |  |  | pIC50 (MAO-A): 4.22 |
| OCCn1nnc(-c2ccc(OCc3ccc(Cl)c(Cl)c3)cc2)n1 [compound 23] | 7.62 |  |  | pIC50 (MAO-A): 3.85 |
| OCCCCCCn1nnc(-c2ccc(-c3ccccc3)cc2)n1 [compound 27] | 4.79 |  |  | pIC50 (MAO-A): 4.10 |
| N#CCn1nnc(-c2ccc(OCc3ccccc3)cc2)n1 [compound 29] |  | 3 | 7.00 |  |
| COCn1nnc(-c2ccc(OCc3ccccc3)cc2)n1 [compound 30] | 5.80 |  |  |  |
| Cc1ccc(COc2ccc(-c3nnn(CC#N)n3)cc2)cc1 [compound 31] |  |  | 5.80 |  |
| Cc1ccc(COc2ccc(-c3nnn(CCC#N)n3)cc2)cc1 [compound 32] | 6.24 |  |  |  |
| Cc1ccc(COc2ccc(-c3nnn(CCO)n3)cc2)cc1 [compound 33] |  | 0 | 5.10 |  |
| Cc1cccc(COc2ccc(-c3nnn(CCC#N)n3)cc2)c1 [compound 35] |  | 5 | 6.70 |  |
| Cc1cccc(COc2ccc(-c3nnn(CCO)n3)cc2)c1 [compound 36] |  | 2 | 6.52 |  |
| Cc1ccccc1COc1ccc(-c2nnn(CC#N)n2)cc1 [compound 37] |  | 10 | 6.80 |  |
| Cc1ccccc1COc1ccc(-c2nnn(CCC#N)n2)cc1 [compound 38] |  | 6 | 6.96 |  |
| Cc1ccccc1COc1ccc(-c2nnn(CCO)n2)cc1 [compound 39] |  | 3 | 6.54 |  |

| SMILES | pIC50 (MAO-B; Table VII) | inhibition at 1 µM (MAO-A) [%] | pIC50 (MAO-B; Table VIII) | further results |
| --- | --- | --- | --- | --- |
| COc1ccc(COc2ccc(-c3nnn(CCC#N)n3)cc2)cc1 [compound 41] |  | 9 | 5.47 |  |
| COc1ccc(COc2ccc(-c3nnn(CCO)n3)cc2)cc1 [compound 42] | 5.33 |  |  |  |
| COc1cccc(COc2ccc(-c3nnn(CCC#N)n3)cc2)c1 [compound 44] |  | 0 | 6.40 |  |
| COc1cccc(COc2ccc(-c3nnn(CCO)n3)cc2)c1 [compound 45] |  | 7 | 6.10 |  |
| N#CCn1nnc(-c2ccc(OCc3ccc(F)cc3)cc2)n1 [compound 46] |  | 6 | 6.77 |  |
| N#CCCn1nnc(-c2ccc(OCc3ccc(F)cc3)cc2)n1 [compound 47] |  | 2 | 6.68 |  |
| OCCn1nnc(-c2ccc(OCc3ccc(F)cc3)cc2)n1 [compound 48] |  | 2 | 6.57 |  |
| Cc1ccc(COc2ccc(-c3nnnn3CC#N)cc2)cc1 [compound 50] |  | 12 | 7.82 |  |
| COc1ccc(COc2ccc(-c3nnnn3CCO)cc2)cc1 [compound 51] | 6.05 |  | 6.05 |  |
| N#CCn1nnnc1-c1ccc(OCc2ccc(F)cc2)cc1 [compound 52] |  | 15 | 7.62 |  |
| OCCn1nnnc1-c1ccc(OCc2ccc(F)cc2)cc1 [compound 53] |  | 3 | 6.44 |  |
| N#CCCn1nc(-c2ccc(OCc3ccccc3)cc2)oc1=O [compound 54] | 8.19 |  |  |  |
| N#CCCn1nc(-c2ccc(OCc3ccccc3)cc2)oc1=S [compound 55] | 8.03 |  |  |  |
| N#CCCn1nc(-c2ccc(OCc3ccccc3)cc2)sc1=O [compound 56] | 7.80 |  |  |  |
| N#CCCn1nc(-c2ccc(OCc3ccccc3)cc2)sc1=S [compound 57] | 7.21 |  |  |  |
| OCCn1nnnc1-c1ccc(OCc2ccccc2I)cc1 [compound 58] |  | 3 | 5.44 |  |
| N#CCn1nnnc1-c1ccc(OCc2ccccc2)cc1 [compound 59] |  | 4 | 7.17 |  |
| Cc1ccccc1COc1ccc(-c2nnnn2CCC#N)cc1 [compound 60] |  | 17 | 6.32 |  |
| Cc1cccc(COc2ccc(-c3nnnn3CCC#N)cc2)c1 [compound 61] |  | 1 | 6.57 |  |
| CN(C)CCn1nnc(-c2ccc(OCc3ccccc3)cc2)n1 [compound 64] |  | 15 | 6.55 |  |
| BrCCn1nnc(-c2ccc(OCc3ccccc3)cc2)n1 [compound 65] |  | 4 | 7.05 |  |
| CC(=O)NCCn1nnc(-c2ccc(OCc3ccccc3)cc2)n1 [compound 66] |  | 3.7 | 5.82 |  |
| NCCn1nnc(-c2ccc(OCc3ccccc3)cc2)n1 [compound 68] |  | 6 | 7.15 |  |
